Experimental findings from patent US20020193404A1, “Use of bicyclic heterocycles for the treatment and prevention of arterial thrombotic disease” (priority 2001, published 2002) are described below.

Test [1] concerns the target T1, human fibrinogen receptor (glycoprotein IIb/IIIa) (Homo sapiens, UniProt P05106+P08514).
T1 construct: endogenous in cells; host or cells: human thrombocytes in platelet-rich plasma from donor blood
In words: Inhibition of binding of 3H-BIBU 52 to human thrombocytes. The following applies: 3H-BIBU 52 5 nM, human thrombocytes in plasma, ambient temperature, 20 minutes. Here is the method:
The inhibiting effect on the human fibrinogen receptor (glycoprotein IIb/IIIa) was investigated as follows:
Inhibition of Binding of ^3H-BIBU 52 to Human Thrombocytes:
A suspension of human thrombocytes was incubated with ^3H-BIBU 52 [=(3S,5S)-5-[(4′-amidino-4-biphenylyl)oxymethyl]-3-[(carboxy)methyl]-2-pyrrolidinone[3-^3H-4-biphenylyl]], which replaces the ligand ^125I-fibrinogen known from the literature (cf. DE-A-4 214 245), and various concentrations of the substance being tested. The free and bound ligands were separated by centrifugation and quantitatively determined by scintillation counting. The inhibition of the ^3H-BIBU 52 binding by the test substance was determined from the measurements obtained. To do this, donor blood was taken from an anticubital vein and anticoagulated with trisodium citrate (final concentration: 13 mM). The blood was centrifuged for ten minutes at 170× g and the supernatant platelet-rich plasma (PRP) was removed. The remaining blood was sharply centrifuged once more to obtain plasma. The PRP was diluted 1:10 with autologous plasma. […] 100 μl thereof were assayed in order to quantify the free ligand. […] The residual plasma still remaining in the pellet was determined from the ^14C content while the bound ligand was determined from the ^3H measurement. […]

The test system of a further test is human citrated plasma. Briefly: aPTT (activated partial thromboplastin time) prolongation. Particulars: concentration at which the aPTT time was double that of the control, 37° C. Here is the method:
The inhibiting effect of the two substances on blood clotting was measured by determining the prolongation of aPTT (activated partial thromboplastin time) as follows:
Plasma, from citrated human blood
PTT reagent, Boehringer Mannheim (524298)
Calcium solution (0.025 mol/L), Behring Werke, Marburg (ORH 056/57)
Diethyl barbiturate acetate buffer, Behring Werke, Marburg (ORWH 60/61)
The aPTT was determined using a Biomatic—B 10 coagulometer made by Messrs Desaga (Wiesloch). The test substance was placed in the test tubes prescribed by the manufacturer with 0.1 ml of human citrated plasma and 0.1 ml of PTT reagent. The preparations were incubated for three minutes at 37° C. The clotting reaction was started by the addition of 0.1 ml of calcium solution. The time taken for the plasma to clot was measured by the apparatus as the calcium solution was added. Analogous test preparations to which 0.1 ml of diethyl barbiturate acetate buffer had been added were used as controls. According to the definition of EC200, the substance concentration at which the aPTT time was double that of the control was determined using a dosage-activity curve.

T1 sequence (P08514 32-887 limits assumed): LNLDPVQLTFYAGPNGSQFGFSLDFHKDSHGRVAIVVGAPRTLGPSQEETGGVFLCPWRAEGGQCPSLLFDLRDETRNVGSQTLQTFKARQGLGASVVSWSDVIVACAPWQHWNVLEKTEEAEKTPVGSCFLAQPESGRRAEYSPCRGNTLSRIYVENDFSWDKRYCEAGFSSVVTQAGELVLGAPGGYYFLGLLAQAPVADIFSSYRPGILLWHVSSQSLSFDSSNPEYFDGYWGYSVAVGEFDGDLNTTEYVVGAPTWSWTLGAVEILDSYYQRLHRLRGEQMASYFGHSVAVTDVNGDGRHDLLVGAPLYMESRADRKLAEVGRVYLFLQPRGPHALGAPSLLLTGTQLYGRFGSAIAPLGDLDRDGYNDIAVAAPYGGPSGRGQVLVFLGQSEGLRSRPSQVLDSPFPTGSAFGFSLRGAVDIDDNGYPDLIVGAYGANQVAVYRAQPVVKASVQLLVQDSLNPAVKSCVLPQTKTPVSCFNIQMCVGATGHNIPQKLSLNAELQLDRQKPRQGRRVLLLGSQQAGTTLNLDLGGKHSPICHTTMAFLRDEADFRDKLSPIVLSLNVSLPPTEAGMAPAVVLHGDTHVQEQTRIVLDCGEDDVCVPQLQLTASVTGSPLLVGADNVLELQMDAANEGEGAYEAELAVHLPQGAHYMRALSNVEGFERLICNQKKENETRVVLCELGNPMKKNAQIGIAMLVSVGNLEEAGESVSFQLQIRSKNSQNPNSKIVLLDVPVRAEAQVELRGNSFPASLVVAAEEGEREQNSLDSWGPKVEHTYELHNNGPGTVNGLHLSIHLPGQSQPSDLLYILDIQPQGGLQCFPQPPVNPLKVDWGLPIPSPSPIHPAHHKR
T1 sequence (P08514 891-1039 partner limits assumed): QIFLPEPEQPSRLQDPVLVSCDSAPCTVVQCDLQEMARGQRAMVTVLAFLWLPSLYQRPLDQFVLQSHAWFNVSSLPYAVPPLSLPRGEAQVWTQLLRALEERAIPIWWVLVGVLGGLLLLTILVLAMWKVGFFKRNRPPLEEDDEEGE
T1 sequence (P05106 27-788): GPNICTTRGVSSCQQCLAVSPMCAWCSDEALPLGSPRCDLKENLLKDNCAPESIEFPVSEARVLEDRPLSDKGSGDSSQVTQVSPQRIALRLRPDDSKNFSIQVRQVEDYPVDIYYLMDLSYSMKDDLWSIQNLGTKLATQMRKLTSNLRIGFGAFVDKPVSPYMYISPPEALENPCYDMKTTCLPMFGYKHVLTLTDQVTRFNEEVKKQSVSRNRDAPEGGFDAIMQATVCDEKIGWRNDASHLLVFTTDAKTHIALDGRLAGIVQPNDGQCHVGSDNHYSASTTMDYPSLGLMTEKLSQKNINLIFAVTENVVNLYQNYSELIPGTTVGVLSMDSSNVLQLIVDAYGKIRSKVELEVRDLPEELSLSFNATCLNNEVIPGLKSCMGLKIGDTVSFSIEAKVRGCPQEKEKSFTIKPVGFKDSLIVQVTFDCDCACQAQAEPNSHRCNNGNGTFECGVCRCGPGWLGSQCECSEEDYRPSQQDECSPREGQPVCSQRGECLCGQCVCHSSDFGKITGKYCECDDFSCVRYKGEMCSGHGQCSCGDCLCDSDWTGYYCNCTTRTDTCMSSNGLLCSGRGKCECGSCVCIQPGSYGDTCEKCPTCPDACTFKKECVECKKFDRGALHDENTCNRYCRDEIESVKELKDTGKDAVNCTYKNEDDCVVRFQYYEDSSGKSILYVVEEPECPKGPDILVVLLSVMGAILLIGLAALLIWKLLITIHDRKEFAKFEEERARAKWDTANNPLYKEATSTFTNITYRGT

In test [1], `Cn1c(COc2ccc(C(=N)N)cc2)nc2cc(N(CC(=O)O)S(=O)(=O)c3cccc4cccnc34)ccc21` [A, 1-methyl-2-[(4-amidinophenyl)-oxymethyl]-5-[N-(hydroxycarbonylmethyl)-quinoline-8-sulphonylamino]-benzimidazole] displayed an IC50 of 6 nM. Further, the “aPTT (EC200)” value in the test on human citrated plasma is 0.013 µmol/L.

On to `Cn1c(CNc2ccc(C(=N)N)cc2)nc2cc(N(CC(=O)O)S(=O)(=O)c3cccc4cccnc34)ccc21` [B, 1-methyl-2-[N-(4-amidinophenyl)-aminomethyl]-5-[N-(hydroxycarbonylmethyl)-quinoline-8-sulphonylamino]-benzimidazole], for which the IC50 in test [1] was found to be 49 nM. In addition, the “aPTT (EC200)” value in the test with human citrated plasma came to 0.026 µmol/L.
